In US20220304349A1, “Steviol Glycoside Compositions for Oral Ingestion or Use” (CARGILL, Incorporated, priority 2016, published 2022):
Blank lines part the entries; values can stand above or below the compound they belong to.

Experiments:
[1] = Instantaneous solubility: vigorous mixing with deionized water for 10 minutes at room temperature; assay type: physicochemical; design: key to instantaneous solubility at stated concentration: Clear solutions without precipitates are considered soluble; conditions: for concentration of the rebaudioside in the instantaneously soluble 0.37% solution of the fermentation composition: room temperature water; for instantaneous solubility: water, room temperature
Procedure: The composition can optionally be expressed in terms of the concentration of one or more steviol glycoside(s). […] Clear solutions without precipitates are considered soluble. Unless indicated otherwise herein, the term “solubility” refers to “equilibrium solubility.”
Instantaneous solubility is determined by mixing steviol glycoisde with deionized water vigorously for 10 minutes at room temperature. […] Clear solutions without precipitates are considered soluble.

[2] = Equilibrium solubility: heating in deionized water at 80° C. for 15 minutes, cooling to room temperature, observation up to 4 days; assay type: physicochemical; design: key to equilibrium solubility at stated concentration: Clear solutions without precipitates are considered soluble; conditions: for equilibrium solubility: after 80° C. for 15 minutes, at room temperature, up to 4 days
From the text: The composition can optionally be expressed in terms of the concentration of one or more steviol glycoside(s). […] Clear solutions without precipitates are considered soluble. Unless indicated otherwise herein, the term “solubility” refers to “equilibrium solubility.” […]

[3] = Sensory evaluation by two to three experienced tasters, solutions in reverse osmosis water (Example 5, Tests A and B); assay type: in vivo, human
Procedure: (§1) Glycoside samples (SG101-104) were isolated and purified from fermentation broth, purified Rebs A, B, and D are of leaf origin and Reb M is chemically synthesized. All samples were dissolved in reverse osmosis water at the concentrations indicated. Unsweetened black tea was used in one set of experiments. Approximately 2-3 milliliters of each solution was tasted and sensory evaluations conducted by two to three experienced tasters. Test A
As used herein, “sucrosey” means having a flavor profile, a sweetness profile, or a flavor profile and a sweetness pofile more similar to that of sucrose.

[4] = Sensory evaluation by experienced tasters in unsweetened black tea (Example 5, Test A); assay type: in vivo, human; conditions: about 200 ppm in tea
Procedure: as §1

[5] = Sweetness time intensity (TI) profile in water, SG composition Lot B versus RebM; assay type: in vivo, human; conditions: sweetness TI in water vs RebM
Procedure: Comparison of SG composition Lot B and RebM using TI for sweet.
Training: Descriptive panelists, who are highly trained and experienced on-call taste panelists, had four training sessions. They trained with sucrose references. Then they practiced scoring the samples using the scale on the ballot using a time intensity scale.
Testing: There was at least a 10 minute break in between samples. They were provided with filtered water, sparkling water, carrots, unsalted rice crackers and unsalted saltine crackers during break only. All samples were evaluated in a balanced sequential order one at a time. Panelists swallowed the sample at 10 seconds.
Serving Size/Container: 15 g in a 2 oz cup Serving Temp Room temperature
Sweetness Results (12 panelists; 3 replicates)

[6] = in vivo; cited from earlier work
[7] = cited from earlier work
[8] = SEV measurement by trained sensory panel in citric acid buffer at pH=3.0; assay type: in vivo, human; conditions: for SEV: citric acid buffer pH=3.0; for Sucrose equivalent value / relative sweetness scale- sucrose = 1: 250 ppm in citric buffer, pH = 3.0
From the text: Sweetness may be determined by measuring sucrose equivalent values (SEV) using methods and processes well known to those skilled in the art. For example, SEV may be determined by measuring sweetness equivalence to a reference sucrose solution. Typically, taste panelists are trained to detect and scale sweetness of reference sucrose solutions containing between 10 g to 150 g sucrose/kg (1 to 15 wt % aqueous sucrose solution). A sweetener composition containing one or more glycosides are then tasted at a series of dilutions to determine the concentration of the sweetener composition that is as sweet as a given sucrose reference. For example, if a sweetened solution is as sweet as a 5 wt % sucrose solution, then the sweetened solution is assigned a SEV of 5.
SEV measurements for SG101-104 (listed above and in Table 12) were performed according to the following procedure: A trained sensory panel evaluated solutions of SG101, SG102, SG103, and SG104 at the concentrations specified. Solutions were made in a citric acid buffer at pH=3.0. All solutions were heated to 55° C. for 12 minutes to ensure that all the glycoside material was completely dissolved. The solutions were allowed to cool to room temperature before serving to the panelists. Each solution was given a random 3-digit code and was served to the panelists in random order. Panelists dispensed 2 mL of each solution into their mouths from a pipette. The panelists were then asked to rate the “sweetness intensity” of the solutions and mark their responses on an un-anchored, 15 cm line scale. The length of the line corresponds to the scale values (1-15) on which the participants were trained. The panelists' responses were measured, compiled, and averaged for each sample. Each sample was tested by approximately 12 trained panelists.

instantaneous solubility at stated concentration ([1]; 0.10%): soluble
instantaneous solubility at stated concentration ([1]; 0.13%): soluble
instantaneous solubility at stated concentration ([1]; 0.20%): insoluble
instantaneous solubility at stated concentration ([1]; 0.30%): insoluble
improvement (increase) in instantaneous solubility over the pure rebaudioside ([1]; in the presence of compounds SG101-104 (fermentation derived composition)): > 60%
concentration of the rebaudioside in the instantaneously soluble 0.37% solution of the fermentation composition [1]: 0.21%
concentration of the rebaudioside in the instantaneously soluble 0.37% solution of the fermentation composition ([1]; listed as reb M): about 0.21%
instantaneous solubility [1]: at least 0.13%
instantaneous solubility ([1]; listed as rebaudioside M): about 0.13%
equilibrium solubility at stated concentration ([2]; 0.10%): soluble
equilibrium solubility at stated concentration ([2]; 0.13%): soluble
equilibrium solubility at stated concentration ([2]; 0.20%): soluble
equilibrium solubility at stated concentration ([2]; 0.30%): insoluble
equilibrium solubility [2]: at least 0.2%
equilibrium solubility ([2]; listed as rebaudioside M): about 0.2%
Compound: C=C1C[C@@]23CC[C@H]4[C@@](C)(CCC[C@@]4(C)C(=O)O[C@@H]4O[C@H](CO)[C@@H](O)[C@H](O[C@@H]5O[C@H](CO)[C@@H](O)[C@H](O)[C@H]5O)[C@H]4O[C@@H]4O[C@H](CO)[C@@H](O)[C@H](O)[C@H]4O)[C@@H]2CC[C@]1(O[C@@H]1O[C@H](CO)[C@@H](O)[C@H](O[C@@H]2O[C@H](CO)[C@@H](O)[C@H](O)[C@H]2O)[C@H]1O[C@@H]1O[C@H](CO)[C@@H](O)[C@H](O)[C@H]1O)C3 [Reb M, rebaudioside M]
Sensory comments ([3]; 200 ppm in water, Test A): Typical mid-sweet for Reb M, fairly well rounded, quick rise, some tailing, some bitter
Sensory comments ([3]; 400 ppm in water, Test A): Higher sweet, faster onset than 200 ppm, cotton candy sweetness-skews to HFCS longer linger, sharper bitterness—but not oppressing sweetness
Sensory comments ([3]; Reb M alone in water, Test B, concentration not stated at the comment): clean, sweet, spiky sweetness
Sensory comments [4]: Nice subtle sweetness, feels like sugar, but with long linger very good
Perimeter [5]: 58.3
AUC ([5]; area under the curve (total)): 132.9a
Plateau Time ([5]; duration of peak intensity): 4.1a
Tdur ([5]; duration time of sensation): 35.4a
Imax ([5]; peak intensity, 12 panelists, 3 replicates): 5.9
APostMax ([5]; post-peak area under the curve): 90.0a
APreMax ([5]; pre-peak area under the curve): 43.0
Rate Decrease ([5]; slope after peak intensity): −0.2a
Rate Increase ([5]; slope before peak intensity): 0.7
Tonset ([5]; time sensation is first perceived): 0.8
Text ([5]; time to extinction): 36.3a
sweetness characteristics [6]: higher sweetness intensity and is more potent than other steviol glycosides
aqueous solubility in words [7]: poor aqueous solubility and dissolution qualities in beverage formulations

Compound: C=C1C[C@@]23CCC4[C@](C)(C(=O)OC5OC(CO)C(O)C(OC6OC(CO)C(O)C(O)C6O)C5OC5OC(CO)C(O)C(O)C5O)CCC[C@@]4(C)[C@@H]2CC[C@]1(OC1OC(COC2OC(CO)C(O)C(O)C2O)C(O)C(OC2OC(CO)C(O)C(O)C2O)C1OC1OC(CO)C(O)C(O)C1O)C3 (stereo partly shown) [SG102]
Sensory comments ([3]; 200 ppm in water, Test A): a bit sweeter than SG101, sweetness does have quick onset
Sensory comments [4]: Not sweet, slightly less astringent, some additional roundedness
SEV ([8]; 200 ppm): 1.0
SEV ([8]; 400 ppm): 1.5

Compound: C=C1C[C@@]23CCC4[C@](C)(C(=O)OC5OC(CO)C(O)C(OC6OC(CO)C(O)C(O)C6O)C5OC5OC(CO)C(O)C(O)C5O)CCC[C@@]4(C)[C@@H]2CC[C@]1(OC1OC(CO)C(O)C(OC2OC(COC4OC(CO)C(O)C(O)C4O)C(O)C(O)C2O)C1OC1OC(CO)C(O)C(O)C1O)C3 (stereo partly shown) [SG104]
Sensory comments ([3]; 200 ppm in water, Test A): as sweet or sweeter than 200 ppm Reb M, more rounded sweetness, enhanced sugar quality effects (sensations reminiscent of sucrose, vanilla), “fuller” feeling
Sensory comments [4]: As sweet as Reb M, very sucrosey compared to Reb M, a little back end licorice
Sucrose equivalent value [8]: 6.5
relative sweetness scale- sucrose = 1 [8]: 260X

Compound: C=C1C[C@@]23CCC4[C@](C)(C(=O)OC5OC(CO)C(O)C(O)C5OC5OC(CO)C(O)C(O)C5O)CCC[C@@]4(C)[C@@H]2CC[C@]1(OC1OC(CO)C(O)C(OC2OC(COC4OC(CO)C(O)C(O)C4O)C(O)C(O)C2O)C1OC1OC(CO)C(O)C(O)C1O)C3 (stereo partly shown) [SG103]
Sensory comments ([3]; 200 ppm in water, Test A): as sweet or sweeter than 200 ppm Reb M, more sucrosey, sugary quality characteristics (high fructose corn syrup (HFCS), cotton candy notes) are reminiscent of Reb M at 400 ppm but not as sweet, “fuller” feeling
Sensory comments [4]: Slower onset than Reb M by itself, not as sweet as Reb M, slightly more licorice aftertaste
Sucrose equivalent value [8]: 4.8
relative sweetness scale- sucrose = 1 [8]: 192X

Compound: C=C1C[C@@]23CCC4[C@](C)(C(=O)OC5OC(CO)C(O)C(O)C5OC5OC(CO)C(O)C(O)C5O)CCC[C@@]4(C)[C@@H]2CC[C@]1(OC1OC(COC2OC(CO)C(O)C(O)C2O)C(O)C(OC2OC(CO)C(O)C(O)C2O)C1OC1OC(CO)C(O)C(O)C1O)C3 (stereo partly shown) [SG101]
Sensory comments ([3]; 200 ppm in water, Test A): not sweet, astringent, cloying—mouth drying on the tongue
Sensory comments [4]: Zero sweetness, seems less than in water, naked tea
SEV ([8]; 200 ppm): 0.6
SEV ([8]; 400 ppm): 1.2
SEV ([8]; 500 ppm): 1.6
